Source: publication PMC9653258, “NDUFS3 knockout cancer cells and molecular docking reveal specificity and mode of action of anti-cancer respiratory complex I inhibitors” (Open Biology, 2022)
Read-outs that look alike come from different tables or passages of the source. Each block holds one molecule with its values, some of them ahead of it.

What was measured:
[1] = tested on: SKOV3 cells (NDUFS3^+/+); test: Cell proliferation, Incucyte live-imaging (confluence); format: cell-based, human
Experimental: (§1) Cell proliferation and morphology were assessed using the Incucyte Live-imaging System (Sartorius) and proliferation was quantified through time-lapse image acquisition and metrics application.
(§2) Briefly, 2.5 × 10^3 SKOV3/well, 2 × 10^3 HCT116/well and 1 × 10^3 B16-F10/well were seeded in 96-well plates in high-glucose DMEM and incubated overnight to allow cells attachment. For specificity assays, NDUFS3 wild-type and knockout cells were seeded simultaneously, and the same confluence mask was applied for subsequent analysis. […] Cell growth was evaluated by Incucyte system phase contrast software (confluence metrics), which provides an occupied area average (% of confluence) per image/per well. For data in electronic supplementary material, figures S1 and S2, the analysis was performed using % of confluence metric per scan normalized on treatment starting point (time 0). For data in figures 1 and 2, the percentage of cell confluence normalized on time 0 for each inhibitor's treatment was subsequently normalized to untreated control. At least three replicate experiments were performed for each treatment condition.

[2] = tested on: HCT116 cells (NDUFS3^+/+); test: as above; format: cell-based, human
Experimental: as §1, §2

[3] = tested on: CI (respiratory complex I) in permeabilized SKOV3, HCT116 and B16-F10 cells; test: Mitochondrial ATP synthesis rate, CI-driven, digitonin-permeabilized cells (luciferin/luciferase); format: cell-based, human, murine; conditions: optimized concentrations; all the investigated cell models
Experimental: The rate of mitochondrial ATP synthesis was measured in digitonin-permeabilized CI competent cells by using a luciferin/luciferase assay as previously described with minor modifications [47]. Chemiluminescence was determined as a function of time with a luminometer (Sirius L Tube, Titertek-Berthold, Pforzheim, Germany). After trypsinization, cells (10 × 10^6 ml^−1) were suspended in a buffer containing 150 mM KCl, 25 mM Tris–HCl, 2 mM EDTA (ethylenediaminetetraacetic acid), 0.1% bovine serum albumin, 10 mM potassium phosphate, 0.1 mM MgCl2, pH 7.4, kept at room temperature for 15 min, then incubated with 50 µg ml^−1 digitonin until 90–100% of cells were positive to Trypan Blue staining. Aliquots of 3 × 10^5 permeabilized cells were incubated in the same buffer in the presence of the adenylate kinase inhibitor P1,P5-di(adenosine-5′) pentaphosphate (0.1 mM, Sigma-Aldrich #A2754) and 10 µl of the luciferin/luciferase assay reagent (Sigma-Aldrich #FLAAM-5VL). Then, ATP synthesis rate was determined after the sequential addition of the following substrates and inhibitors. […] Then, CI inhibitors were added at the optimized concentrations that completely suppress maximal respiration previously determined by titration with Seahorse. […]

[4] = tested on: B16-F10 cells (NDUFS3^+/+); test: Cell proliferation, Incucyte live-imaging (confluence); format: cell-based, murine
Experimental: as §1, §2

[5] = tested on: NDUFS3^+/+ and NDUFS3^−/− SKOV3, HCT116 and B16-F10 cells; test: Specificity assay: proliferation of NDUFS3^+/+ versus NDUFS3^−/− cells, Incucyte; format: cell-based, human, murine; conditions: EVP 4593 100 nM (SKOV3, HCT116), 200 nM (B16-F10); BAY 87-2243 1 µM, 20 µM (B16-F10); IACS-010759 1 µM, 5 µM (B16-F10); 72 h
Experimental: as §1, §2

[6] = tested on: NDUFS3^−/− cells (SKOV3^−/−, HCT116^−/−, B16-F10^−/−); test: Proliferation of CI-deficient cells, Incucyte (all three models); format: cell-based, human, murine; conditions: tested concentrations (up to 1 µM)
From the text: (§3) Human ovarian cancer cell line SKOV3 and murine melanoma cell line B16-F10 were purchased from ATCC (#HTB-77; #CRL-6475, Manassas, VA, USA). Human colorectal cancer cell line HCT116 was authenticated using […]dentifiler kit (Applied Biosystem #4322288) and its STR profile corresponded to the putative background. Mitochondrial DNA (mtDNA) was sequenced by Sanger sequencing as previously described, to ensure wild-type genotype. The results are available upon request. NDUFS3 knockout cells, referred as SKOV3^−/−, HCT116^−/− and B16-F10^−/−, were generated by genome editing as previously reported. Briefly, CRISPR/Cas9 system was used to introduce a frameshift mutation in NDUFS3 gene in SKOV3 human cell line and Ndufs3 gene in B16-F10 murine cell line, using exon 2 targeting guide […] and exon 3 targeting guide […], respectively. […]
as §1
(§4) Briefly, 2.5 × 10^3 SKOV3/well, 2 × 10^3 HCT116/well and 1 × 10^3 B16-F10/well were seeded in 96-well plates in high-glucose DMEM and incubated overnight to allow cells attachment. […] Cell growth was evaluated by Incucyte system phase contrast software (confluence metrics), which provides an occupied area average (% of confluence) per image/per well. […]

[7] = tested on: mitochondrial respiration of HCT116 cells; test: Microrespirometry (Seahorse XFe, oxygen consumption rate); format: cell-based, human; conditions: for IC50: Homo sapiens, read-out: IC50 (residual OCR, concentration-response)
Experimental: (§5) Mitochondrial respiration was measured using the protocol described for the Seahorse XFe Cell Mito Stress Test Kit (Agilent #103015-100) following the manufacturer instructions. Briefly, 12 × 10^3 cells/well (SKOV3, HCT116) and 8 × 10^3 (B16-F10) were seeded in 80 µl of DMEM medium into XFe96 cell culture plates and incubated for 48 h (HCT116) and for 24 h (SKOV3, B16-F10) at 37°C and 5% CO2. Complete growth medium was replaced with 180 µl of XF medium (Agilent #103575-100) supplemented with 10 mM glucose, 1 mM sodium pyruvate, 2 mM L-glutamine, at pH 7.4. For temperature and pH equilibration, cells were incubated at 37°C for 30 min. Three oxygen consumption rate (OCR) baseline measurements were followed by injection of either vehicle or different concentrations of CI-inhibitors and subsequent measurements; 1 µM oligomycin, carbonyl cyanide-p-trifluoromethoxyphenylhydrazone (FCCP), 1 µM rotenone and 1 µM antimycin A were sequentially added to each well. FCCP concentrations were previously optimized by titration and were 0.5 µM for SKOV3, 0.75 µM for HCT116 and 1 µM for B16-F10, respectively. At the end of the assay, medium was removed and sulforhodamine B (SRB) assay was performed to determine protein content for normalization. Briefly, plates were incubated with 10% trichloroacetic acid (TCA) for 1 h at 4°C to fix the cells. Five washes in water were carried out. Once the plates were dry, proteins were stained by incubation with 0.4% SRB for 30 min at RT. SRB was solubilized with 10 mM Tris and absorbance at 560 nm was determined using a Victor2 plate reader (Perkin-Elmer). Data (pmol min^−1) were normalized to blank corrected SRB absorbance.

[8] = tested on: mitochondrial respiration of SKOV3 cells; test: as above; format: cell-based, human; conditions: for IC50: Homo sapiens, read-out: IC50 (residual OCR, concentration-response)
Experimental: as §5

[9] = tested on: mitochondrial respiration of B16-F10 cells; test: as above; format: cell-based, murine; conditions: for IC50: Mus musculus
Experimental: as §5

[10] = tested on: mitochondrial respiration of SKOV3, HCT116 and B16-F10 cells; test: Microrespirometry (Seahorse XFe, OCR), stated across cell models; format: cell-based, human, murine
Experimental: as §5

[11] = tested on: SKOV3, HCT116 and B16-F10 cells; test: Apoptotic cell death, Incucyte Caspase-3/7 green dye (all cell models); format: cell-based, human, murine; conditions: 72 h
Experimental: (§7) Cells (SKOV3, HCT116 and B16-F10) were seeded in a 96-wells plate in high glucose DMEM, as described above. Drugs were added after 24 h, in presence of 5 µM Incucyte Caspase-3/7 green dye following the manufacturer's protocol. Then, the plate was placed in Incucyte for 72 h and images (4/well) were captured at 10× magnification with 2 h intervals, both in phase contrast and fluorescent green channel. For each cell line, staurosporine (100 nM, Sigma-Aldrich #S4400) treatment was performed as a positive control. For each experimental condition, the masks for fluorescent objects identification were set by the Incucyte integrated analysis software. Total and green positive cells were counted at 10× magnification in three fields of view per condition, and data are expressed as percentage of apoptotic cells [(number of green cells/number of total cells) × 100].

[12] = tested on: SKOV3^−/− cells (NDUFS3 knockout); test: Proliferation of CI-deficient cells, Incucyte; format: cell-based, human
From the text: (§6) Human ovarian cancer cell line SKOV3 and murine melanoma cell line B16-F10 were purchased from ATCC (#HTB-77; #CRL-6475, Manassas, VA, USA). Human colorectal cancer cell line HCT116 was authenticated using […]dentifiler kit (Applied Biosystem #4322288) and its STR profile corresponded to the putative background. Mitochondrial DNA (mtDNA) was sequenced by Sanger sequencing as previously described, to ensure wild-type genotype. The results are available upon request. NDUFS3 knockout cells, referred as SKOV3^−/−, HCT116^−/− and B16-F10^−/−, were generated by genome editing as previously reported. Briefly, CRISPR/Cas9 system was used to introduce a frameshift mutation in NDUFS3 gene in SKOV3 human cell line and Ndufs3 gene in B16-F10 murine cell line, using exon 2 targeting guide […] and exon 3 targeting guide […], respectively. Instead, zinc finger endonuclease system was used to obtain HCT116 NDUFS3 knockout. Plasmids containing cDNA of NDUFS3-targeted zinc finger endonucleases (Sigma-Aldrich #CKOZFND15186) were purified and transcribed in vitro. The pool of zinc finger endonucleases mRNAs was transfected into 70% confluent HCT116 cells. The resulting heterozygous clones were subjected to a subsequent second transfection with NDUFS3 zinc finger pool and led to the selection of homozygous frameshift NDUFS3 mutants.
as §1, §2

[13] = tested on: HCT116^−/− cells (NDUFS3 knockout); test: Proliferation of CI-deficient cells, Incucyte; format: cell-based, human
From the text: as §6, §1, §2

[14] = tested on: HCT116 cells; test: Apoptotic cell death, Incucyte Caspase-3/7 green dye; format: cell-based, human; conditions: 72 h
Experimental: as §7

[15] = tested on: SKOV3 cells; test: as above; format: cell-based, human; conditions: 72 h
Experimental: as §7

[16] = tested on: B16-F10^−/− cells (NDUFS3 knockout); test: Proliferation of CI-deficient cells, Incucyte; format: cell-based, murine
From the text: as §3, §1, §4

[17] = 1 µM (highest concentration applied)
[18] = B16-F10, figure 4a, read-out: IC50 (residual OCR, concentration-response)
[19] = range over SKOV3, HCT116, B16-F10, read-out: IC50 of mitochondrial respiration (range over cell lines)
[20] = metformin, dose-dependent over the tested concentrations

IC50 ([7]; HCT-116, figure 4a): 0.172 µM
IC50 ([8]; SK-OV-3, figure 4a): 0.115 µM
IC50 [9, 18]: 7.04 µM
IC50 ([9]; murine B16-F10 cells, read-out: IC50 (mitochondrial respiration)): 7 µM
IC50 ([10]; human models (SKOV3, HCT116), read-out: IC50 (mitochondrial respiration)): 0.115 to 0.171 µM
IC50 [10, 19]: 0.12 to 7 µM
Structure (SMILES): Cc1cc(-c2nc(-c3ccc(OC(F)(F)F)cc3)no2)nn1Cc1ccnc(N2CCN(C3CC3)CC2)c1 [BAY 87-2243, 1-cyclopropyl-4-(4-[(5-methyl-3-{3-[4-(trifluoromethoxy)phenyl]-1,2,4-oxadiazol-5-yl)-1H-pyrazol-1-yl)methyl]pyridin-2-yl) piperazine]
reduction of cell growth after 72 h treatment [1, 17]: 38%
reduction of cell growth after 72 h treatment [2, 17]: 20%
effect on CI-driven ATP synthesis [3]: strongly inhibit
reduction of cell growth after 72 h treatment [4, 17]: 28%
effect on cell proliferation at optimized concentrations, NDUFS3^+/+ versus CI-defective counterparts [5]: reduced cell proliferation of NDUFS3^+/+ cells only
effect on CI-deficient cancer cell growth [6]: unaffected
lowest concentration that completely inhibited mitochondrial respiration (abolished OCR) [7]: 1 µM
lowest concentration that completely inhibited mitochondrial respiration (abolished OCR) [8]: 1 µM
concentration required to suppress maximal OCR (abolished OCR) ([9]; B16-F10): 20 µM
fold less efficient in murine B16-F10 cells compared to human models ([9]; ratio of IC50, B16-F10 versus human models): 50 fold
apoptosis (percentage of cells) ([11]; tested BAY 87-2243 concentrations): very low percentage of cells

Structure (SMILES): Nc1ccc2ncnc(NCCc3ccc(Oc4ccccc4)cc3)c2c1 [EVP 4593, N4-[2-(4-phenoxyphenyl)ethyl]-4,6-quinazolinediamine]
decrease in cell proliferation after 72 h ([1]; 2.5–20 µM): 49–62%
decrease in cell proliferation after 72 h ([2]; 2.5–20 µM): 52–74%
effect on CI-driven ATP synthesis [3]: strongly inhibit
decrease in cell proliferation after 72 h ([4]; 2.5–20 µM): 66–84%
concentration causing reduction of NDUFS3^−/− cell growth ([12]; SKOV3 NDUFS3^−/−): 20 µM
concentration causing reduction of NDUFS3^−/− cell growth ([13]; HCT116 NDUFS3^−/−): 10 to 20 µM
apoptotic cell death ([14]; 20 µM): 77.6%
apoptotic cell death ([15]; 20 µM): 24.6%
effect on cell proliferation at optimized concentrations, NDUFS3^+/+ versus CI-defective counterparts [5]: reduced cell proliferation of NDUFS3^+/+ cells only
lowest concentration able to fully curb mitochondrial respiration [7]: 100 nM
IC50 ([7]; HCT-116, figure 4a): 0.013 µM
lowest concentration able to fully curb mitochondrial respiration [8]: 100 nM
IC50 ([8]; SK-OV-3, figure 4a): 0.0111 µM
concentration causing reduction of NDUFS3^−/− cell growth ([16]; B16-F10 NDUFS3^−/−): 20 µM
lowest concentration able to fully curb mitochondrial respiration ([9]; B16-F10): 200 nM
IC50 [9, 18]: 0.0299 µM
concentration range completely suppressing mitochondrial respiration ([10]; in our models (SKOV3, HCT116, B16-F10)): 100 to 200 nM
IC50 [10, 19]: 0.011 to 0.03 µM
apoptotic cell death ([11]; 2.5 µM): modest percentage of dead cells
massive apoptotic cell death ([11]; optimized concentration (100 nM SKOV3 and HCT116, 200 nM B16-F10)): not detected

Structure (SMILES): Cc1nc(-c2nc(-c3ccc(OC(F)(F)F)cc3)no2)nn1Cc1cccc(N2CCC(S(C)(=O)=O)CC2)c1 [IACS-010759]
effect on cell proliferation at optimized concentrations, NDUFS3^+/+ versus CI-defective counterparts [5]: reduced cell proliferation of NDUFS3^+/+ cells only
lowest concentration that completely inhibited mitochondrial respiration (abolished OCR) [7]: 1 µM
lowest concentration that completely inhibited mitochondrial respiration (abolished OCR) [8]: 1 µM
concentration required to suppress maximal OCR (abolished OCR) ([9]; B16-F10): 5 µM

Structure (SMILES): CN(C)C(=N)NC(=N)N.Cl [metformin, 1,1-dimethylbiguanide hydrochloride]
reduction of cell growth after 72 h [1, 20]: 58–90%
reduction of cell growth after 72 h [2, 20]: 46–77%
reduction of cell growth after 72 h [4, 20]: 24–62%
concentrations at which NDUFS3^−/− cell growth was reduced (CI-independent antiproliferative effect) ([12]; metformin, SKOV3^−/−): all the tested concentrations
concentrations at which NDUFS3^−/− cell growth was reduced (CI-independent antiproliferative effect) ([13]; metformin, HCT116^−/−): all the tested concentrations
apoptotic cell death ([14]; 2.5 mM): comparable to the untreated control
apoptotic cell death (portion of the cells) ([15]; 2.5 mM): 2.8%
IC50 ([7]; HCT-116, pre-incubated 24 h before OCR measurement, figure 4a): 225 µM
concentration abolishing basal OCR ([7]; pre-incubation for 24 h): 2 mM
IC50 ([8]; SK-OV-3, pre-incubated 24 h before OCR measurement, figure 4a): 554 µM
concentration abolishing basal OCR ([8]; pre-incubation for 24 h): 2 mM
concentrations at which NDUFS3^−/− cell proliferation was reduced (CI-independent antiproliferative effect) ([16]; metformin, B16-F10^−/−, only at high concentrations): 10 to 20 mM
IC50 ([9]; B16-F10, pre-incubated 24 h before OCR measurement, figure 4a, read-out: IC50 (residual OCR, concentration-response)): 1340 µM
concentration abolishing basal OCR ([9]; pre-incubation for 24 h, B16-F10): 10 mM
decrease of basal respiration (OCR) ([10]; acute injection, only at the highest concentration (50 mM), independently from the cell model): 25–35%
concentration abolishing maximal respiration ([10]; cells pre-incubated (24 h)): 50 mM
IC50 ([10]; range over SKOV3, HCT116, B16-F10, 24 h pre-incubation, read-out: IC50 of mitochondrial respiration (range over cell lines)): 225 to 1340 µM
